Measured values taken from paper PMC4467156, “A new chemical inhibitor of angiogenesis and tumorigenesis that targets the VEGF signaling pathway upstream of Ras” (Oncotarget, 2015).
Where two headings read alike, the source gives them in different places.

Assays:
PKCβII = PKCβII (Homo sapiens, UniProt P05771); test: In vitro kinase assay PKCβII; type: biochemical; details: concentrations up to 50 μM
Protocol: We first wondered whether COB223 required to be internalized to exert its biological effect. For this, we synthesized a covalent complex between BSA and COB223 and purified it. […] In vitro kinase assays were performed with a panel of purified protein-kinases involved in mitogenic signaling, including VEGFR2, FGFR1, FGFR2, PDGFRß, Met, Raf, MEK1, ERK1, ERK2, PKCα, PKCβI, PKCβII, PKCζ as indicated in Table 2. […] We then analyzed the effect of COB223 on VEGF-induced phosphorylations of VEGFR2, MEK and ERK1/2 (Figure 9). […] (Figure 9A, 9B). […] It was also specific of the p42/p44 MAP kinase pathway as activation of p38 MAP kinase phosphorylation in HUVEC cells by VEGF or serum was unaffected by COB223 (data not shown). The activation of src phosphorylation by VEGF in HUVECs was also unaffected by COB223 (data not shown).

LLC/2 cells = test: Cell viability WST-1, LLC/2; type: cell-based; details: confluent LLC/2, 24 h at 37°C
Protocol: Once they had reached confluency, cells were kept for 24 hours in medium supplemented with 0.5% FCS (LLC/2 and 3T3 cells) or 2.5% FCS (HUVEC and HMVEC-d cells), in the presence of COB223 at different concentrations. WST-1 assay (Roche Diagnostic, Meylan, France) was then performed according to the manufacturer's instructions.

[1] = Tolerance in treated LLC/2 tumor-bearing mice; type: in vivo, mouse; details: two week-long treatment with up to 16 mg/kg i.p.
Protocol: We chose this model because of its rapid growth in syngenic mice and its strong dependence on angiogenesis. LLC/2 cells (10^6 in 50 μL medium) were subcutaneously injected into the right flank of […] mice. Seven days after tumor inoculation, mice were given an intraperitoneal (i.p.) injection of either solvent (1.7% DMSO) or COB223 every other day. Tumor size was measured with calipers, and the volume was calculated according to the formula (L*w^2)/2 where L and […] stand for length and width respectively. All mice were killed 21 days after tumor grafting.

HMEC-GFP spheroids = test: Sprouting of HMEC-GFP spheroids into collagen gels; type: cell-based; details: Homo sapiens
Protocol: To prepare spheroids, HMEC-GFP cells were seeded at 3000 cells/well in round-bottom 96-multiwell plates in DMEM 1 g/L glucose (Eurobio, Les Ulis, France) containing 0.25% methylcellulose. 48 h later, the spheroids were collected, transferred into flat-bottom 96-well plates and embedded in collagen gel (1.2 mg/mL type I collagen) prepared in a Iscove's modified Dulbecco's medium, supplemented with FGF-2 (10 ng/mL), 50 U/mL penicillin and 50 μg/mL streptomycin. Treatment with COB223 (10 and 20 μM) started right after spheroids were included in the collagen gels. Sprouting was allowed for 24 h at 37°C. Images were acquired by fluorescence microscopy and analysis of gel invasion was performed using the freeware Image J. Statistical analysis was performed using a Kruskal & Wallis test.
HMEC-GFP cells were developed as spheroids in an Iscove's modified Dulbecco's medium containing 0.2% methylcellulose in round-bottom 96-multiwell plate. Two days later, spheroids were collected and invasion was allowed in a Iscove's modified Dulbecco's medium, supplemented with 1.2 mg/mL collagen I, 50 U/mL Penicillin, 50 μg/mL streptomycin. Molecules (10 or 20 μM) or FGF-2 (10 ng/mL) were added in the preparation before collagen gelification.

ERK1/2 phosphorylation = ERK1/2 phosphorylation in MCF-10A cells expressing oncogenic RasG12V; type: cell-based; details: 25 μM COB223
Protocol: (§1) Figure 11 Effect of COB223 on mitogenic or oncogenic activation of the Ras /MEK/ERK signaling pathway (A) Serum-starved HUVEC cells were incubated for 15 min in the presence of 10 ng/mL VEGF-A and in the absence or the presence of 25 μM COB223. The phosphorylations of PLCγ on tyrosine 783, of Raf on serine 338 or on serine 259 and of ERK1/2 were then analyzed by Western blot analysis of the cell lysates as described in Material and Methods. Western blots for total PLCγ, Raf and ERK1/2 were used as loading controls. (B) MCF10A cells overexpressing an oncogenic version of Ras (MCF10A-RasG12V) were treated for the indicated periods of time by 25 μM COB223. Total ERK1/2 and phospho-ERK1/2 were then visualized by Western blotting of the cell extracts. Non-treated regular MCF10A cells were analyzed as a control (first lane). (C) CCL-39 fibroblasts expressing a constitutively active Raf in an estrogen-responsive manner were stimulated for 3 h with estradiol and treated for 15 or 30 min with 25 μM COB223. Total ERK1/2 and phospho-ERK1/2 were then visualized by Western blotting of the cell extracts. Non-treated cells were analyzed as a control (left lanes).

Raf phosphorylation = test: Western blot, Raf phosphorylation in HUVEC; type: cell-based, human; details: 10 ng/mL VEGF-A 15 min, 25 μM COB223
Protocol: as §1
Serum-starved HUVEC cells were incubated for 15 min in the presence of either 10 ng/mL VEGF-A or 20 ng/mL FGF-2 and in the absence or the presence of indicated concentration of COB223. COB223 was incubated 15 min prior to stimulation. […]

Sequence of PKCβII (P05771 1-673 isoform P05771-2): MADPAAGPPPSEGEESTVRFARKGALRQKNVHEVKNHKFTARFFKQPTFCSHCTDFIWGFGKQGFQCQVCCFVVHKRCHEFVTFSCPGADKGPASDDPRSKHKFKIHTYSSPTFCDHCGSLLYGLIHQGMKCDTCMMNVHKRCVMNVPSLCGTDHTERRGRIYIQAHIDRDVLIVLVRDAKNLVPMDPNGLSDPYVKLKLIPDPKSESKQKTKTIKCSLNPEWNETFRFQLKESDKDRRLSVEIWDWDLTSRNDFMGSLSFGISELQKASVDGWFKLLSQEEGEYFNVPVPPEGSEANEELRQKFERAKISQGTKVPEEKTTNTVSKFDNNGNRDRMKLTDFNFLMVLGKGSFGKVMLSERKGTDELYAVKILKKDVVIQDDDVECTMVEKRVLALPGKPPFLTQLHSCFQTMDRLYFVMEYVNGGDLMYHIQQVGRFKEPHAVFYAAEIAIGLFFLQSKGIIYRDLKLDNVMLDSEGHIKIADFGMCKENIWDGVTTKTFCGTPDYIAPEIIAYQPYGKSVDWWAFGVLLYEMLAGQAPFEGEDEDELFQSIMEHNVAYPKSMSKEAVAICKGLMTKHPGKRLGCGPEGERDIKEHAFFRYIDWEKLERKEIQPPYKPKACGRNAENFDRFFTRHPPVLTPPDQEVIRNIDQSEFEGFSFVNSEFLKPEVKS

SMILES: CN(C)c1cccc2c(S(=O)(=O)NCCCN3CCN(CCCNC(=O)OC(C)(C)C)CC3)cccc12 [COB223, tert-Butyl 3-(4-(3-(5-(dimethylamino)naphthalene-1-sulfonamido)propyl)piperazin-1-yl) propylcarbamate]
- kinase inhibition (PKCβII): None of them was inhibited
- cytotoxic concentrations (LLC/2 cells): > 50 µM
- tolerance, adverse effects [1]: no adverse effect was observed
- inhibition at 10 µM (HMEC-GFP spheroids; 10 μM COB223, 10 ng/ml FGF-2, collagen I gel, read-out: inhibition of FGF-2-stimulated sprouting): 70%
- inhibition at 10 µM (HMEC-GFP spheroids; 10 μM COB223, collagen I gel, read-out: inhibition of basal sprouting): 50%
- constitutive phosphorylation of ERK1/2 induced by oncogenic RasG12V (ERK1/2 phosphorylation): did not modify
- phosphorylation of Raf on residue S338 (Raf phosphorylation): inhibited
